Assay results: patent publication US6506765B2 (TAP Pharmaceutical Products, Inc., priority 2000, dated 2003)
pKi: −log10 of the molar value. Like-named read-outs stand apart in the source and are kept apart here.

Columns and labels:
Serotonin 5-HT2A = Serotonin 5-HT2A (Homo sapiens, UniProt P28223); assay: radioligand binding assay, Serotonin 5-HT2A
Procedure: (§1) Routine radioligand binding assays were performed using reference standards according to established methodology. IC50 values were determined by a non-linear least square regression analysis.

Adrenergic α2B = Adrenergic α2B (Homo sapiens, UniProt P18089); assay: radioligand binding assay, Adrenergic α2B
Procedure: as §1

Serotonin 5-HT7 = Serotonin 5-HT7 (Homo sapiens, UniProt P34969); assay: radioligand binding assay, Serotonin 5-HT7
Procedure: as §1

[1] = target: calcitonin gene related peptide (CGRP) (Homo sapiens, UniProt O60894+Q16602); assay: radioligand binding assay, CGRP
tachykinin NK2 = tachykinin NK2 (Homo sapiens, UniProt P21452); assay: radioligand binding assay, tachykinin NK2
muscarinic M5 = muscarinic M5 (Homo sapiens, UniProt P08912); assay: radioligand binding assay, muscarinic M5
adrenergic β2 = adrenergic β2 (Homo sapiens, UniProt P07550); assay: radioligand binding assay, adrenergic β2
Procedure: as §1

Adrenergic α1A = Adrenergic α1A (Homo sapiens, UniProt P35348); assay: radioligand binding assay, Adrenergic α1A
Procedure: as §1

tachykinin NK1 = tachykinin NK1 (Homo sapiens, UniProt P25103); assay: radioligand binding assay, tachykinin NK1
Opiate μ = Opiate μ (Homo sapiens, UniProt P35372); assay: radioligand binding assay, Opiate μ
Procedure: as §1

Serotonin 5-HT1B = Serotonin 5-HT1B (Homo sapiens, UniProt P28222); assay: radioligand binding assay, Serotonin 5-HT1B
Dopamine D2S = Dopamine D2S (Homo sapiens, UniProt P14416); assay: radioligand binding assay, Dopamine D2S
Procedure: as §1

dopamine D4.7 = assay: radioligand binding assay, dopamine D4.7
Procedure: as §1

muscarinic M4 = muscarinic M4 (Homo sapiens, UniProt P08173); assay: radioligand binding assay, muscarinic M4
adrenergic β3 = adrenergic β3 (Homo sapiens, UniProt P13945); assay: radioligand binding assay, adrenergic β3
Procedure: as §1

nitric oxide synthetase = assay: activity of nitric oxide synthetase; type: biochemical
Dopamine D3 = Dopamine D3 (Homo sapiens, UniProt P35462); assay: radioligand binding assay, Dopamine D3
Procedure: as §1

neuropeptide Y NPY2 = neuropeptide Y NPY2 (Homo sapiens, UniProt P49146); assay: radioligand binding assay, neuropeptide Y NPY2
Procedure: as §1

dopamine D4.2 = assay: radioligand binding assay, dopamine D4.2
Procedure: as §1

tachykinin NK3 = tachykinin NK3 (Homo sapiens, UniProt P29371); assay: radioligand binding assay, tachykinin NK3
muscarinic M1 = muscarinic M1 (Homo sapiens, UniProt P11229); assay: radioligand binding assay, muscarinic M1
Procedure: as §1

muscarinic M3 = muscarinic M3 (Homo sapiens, UniProt P20309); assay: radioligand binding assay, muscarinic M3
Procedure: as §1

muscarinic M2 = muscarinic M2 (Homo sapiens, UniProt P08172); assay: radioligand binding assay, muscarinic M2
Procedure: as §1

[2] = test system: gamma aminobutyric acid GABAA; assay: radioligand binding assay, GABAA
Adrenergic α2A = Adrenergic α2A (Homo sapiens, UniProt P08913); assay: radioligand binding assay, Adrenergic α2A
Procedure: as §1

Serotonin 5-HT6 = Serotonin 5-HT6 (Homo sapiens, UniProt P50406); assay: radioligand binding assay, Serotonin 5-HT6
[3] = target: vasoactive intestinal peptide (VIP1) (Homo sapiens, UniProt P32241); assay: radioligand binding assay, VIP1
nicotinic = assay: radioligand binding assay, nicotinic
Serotonin 5-HT1A = Serotonin 5-HT1A (Homo sapiens, UniProt P08908); assay: radioligand binding assay, Serotonin 5-HT1A
Procedure: as §1

[4] = target: gamma aminobutyric acid GABAB (Homo sapiens, UniProt Q9UBS5); assay: radioligand binding assay, GABAB
dopamine D4.4 = dopamine D4.4 (Homo sapiens, UniProt P21917); assay: radioligand binding assay, dopamine D4.4
Procedure: as §1

Serotonin 5-HT2 = assay: radioligand binding assay, Serotonin 5-HT2
adrenergic β1 = adrenergic β1 (Homo sapiens, UniProt P08588); assay: radioligand binding assay, adrenergic β1
Procedure: as §1

neuropeptide Y NPY1 = neuropeptide Y NPY1 (Homo sapiens, UniProt P25929); assay: radioligand binding assay, neuropeptide Y NPY1
Procedure: as §1

serotonin 5-HT4 = serotonin 5-HT4 (Homo sapiens, UniProt Q13639); assay: radioligand binding assay, serotonin 5-HT4
Adrenergic α2C = Adrenergic α2C (Homo sapiens, UniProt P18825); assay: biochemical
Procedure: as §1

opiate κ = opiate κ (Homo sapiens, UniProt P41145); assay: radioligand binding assay, opiate κ
Procedure: as §1

opiate δ = opiate δ (Homo sapiens, UniProt P41143); assay: radioligand binding assay, opiate δ
Procedure: as §1

Adrenergic α1B = Adrenergic α1B (Homo sapiens, UniProt P35368); assay: radioligand binding assay, Adrenergic α1B
Serotonin 5-HT1D = Serotonin 5-HT1D (Homo sapiens, UniProt P28221); assay: radioligand binding assay, Serotonin 5-HT1D
Procedure: as §1

Serotonin 5-HT6, sequence (P50406 whole entry): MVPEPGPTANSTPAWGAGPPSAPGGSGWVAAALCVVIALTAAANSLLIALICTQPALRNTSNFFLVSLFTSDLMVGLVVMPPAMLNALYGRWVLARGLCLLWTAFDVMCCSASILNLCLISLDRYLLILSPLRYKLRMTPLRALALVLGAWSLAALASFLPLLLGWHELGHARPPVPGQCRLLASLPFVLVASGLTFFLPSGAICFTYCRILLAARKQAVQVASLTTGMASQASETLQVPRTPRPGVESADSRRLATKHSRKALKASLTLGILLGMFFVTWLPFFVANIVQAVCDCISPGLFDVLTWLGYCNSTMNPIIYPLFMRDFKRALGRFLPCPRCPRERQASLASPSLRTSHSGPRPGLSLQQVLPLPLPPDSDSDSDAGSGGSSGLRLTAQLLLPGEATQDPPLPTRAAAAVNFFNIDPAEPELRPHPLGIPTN
neuropeptide Y NPY1, sequence (P25929 whole entry): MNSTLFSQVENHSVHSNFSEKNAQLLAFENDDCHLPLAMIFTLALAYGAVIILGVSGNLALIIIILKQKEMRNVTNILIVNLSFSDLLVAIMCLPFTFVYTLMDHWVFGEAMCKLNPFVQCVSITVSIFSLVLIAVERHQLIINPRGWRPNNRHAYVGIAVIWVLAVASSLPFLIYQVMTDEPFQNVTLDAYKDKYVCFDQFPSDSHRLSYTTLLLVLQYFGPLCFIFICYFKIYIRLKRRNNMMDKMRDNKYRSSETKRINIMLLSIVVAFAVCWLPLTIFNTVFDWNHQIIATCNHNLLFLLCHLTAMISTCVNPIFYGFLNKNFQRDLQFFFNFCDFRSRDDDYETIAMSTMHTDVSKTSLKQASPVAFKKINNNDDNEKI
adrenergic β3, sequence (P13945 whole entry): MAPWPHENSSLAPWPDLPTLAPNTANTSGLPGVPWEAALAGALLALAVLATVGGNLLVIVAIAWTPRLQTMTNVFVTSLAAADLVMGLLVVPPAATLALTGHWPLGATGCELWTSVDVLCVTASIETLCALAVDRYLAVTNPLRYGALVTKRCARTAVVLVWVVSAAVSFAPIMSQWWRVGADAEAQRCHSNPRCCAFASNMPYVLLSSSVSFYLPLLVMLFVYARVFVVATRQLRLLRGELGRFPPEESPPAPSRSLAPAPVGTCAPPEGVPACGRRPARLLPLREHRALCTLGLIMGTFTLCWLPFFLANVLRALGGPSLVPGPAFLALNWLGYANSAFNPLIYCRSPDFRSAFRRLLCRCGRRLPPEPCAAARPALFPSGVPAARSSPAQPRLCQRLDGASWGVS
Serotonin 5-HT7, sequence (P34969 whole entry): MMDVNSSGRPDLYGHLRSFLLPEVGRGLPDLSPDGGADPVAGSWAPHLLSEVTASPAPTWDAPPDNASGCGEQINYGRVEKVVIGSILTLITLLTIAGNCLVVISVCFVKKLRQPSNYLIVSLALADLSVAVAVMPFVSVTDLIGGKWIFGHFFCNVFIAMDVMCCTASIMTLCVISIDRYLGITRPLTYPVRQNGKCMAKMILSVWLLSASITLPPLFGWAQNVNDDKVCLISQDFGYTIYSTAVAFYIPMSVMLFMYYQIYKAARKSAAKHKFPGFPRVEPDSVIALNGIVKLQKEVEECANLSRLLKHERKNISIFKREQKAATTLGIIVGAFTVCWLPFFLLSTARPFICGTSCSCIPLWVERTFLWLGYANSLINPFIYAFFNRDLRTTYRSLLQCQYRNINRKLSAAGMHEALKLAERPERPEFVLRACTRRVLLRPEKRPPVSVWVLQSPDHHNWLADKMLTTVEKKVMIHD
muscarinic M3, sequence (P20309 whole entry): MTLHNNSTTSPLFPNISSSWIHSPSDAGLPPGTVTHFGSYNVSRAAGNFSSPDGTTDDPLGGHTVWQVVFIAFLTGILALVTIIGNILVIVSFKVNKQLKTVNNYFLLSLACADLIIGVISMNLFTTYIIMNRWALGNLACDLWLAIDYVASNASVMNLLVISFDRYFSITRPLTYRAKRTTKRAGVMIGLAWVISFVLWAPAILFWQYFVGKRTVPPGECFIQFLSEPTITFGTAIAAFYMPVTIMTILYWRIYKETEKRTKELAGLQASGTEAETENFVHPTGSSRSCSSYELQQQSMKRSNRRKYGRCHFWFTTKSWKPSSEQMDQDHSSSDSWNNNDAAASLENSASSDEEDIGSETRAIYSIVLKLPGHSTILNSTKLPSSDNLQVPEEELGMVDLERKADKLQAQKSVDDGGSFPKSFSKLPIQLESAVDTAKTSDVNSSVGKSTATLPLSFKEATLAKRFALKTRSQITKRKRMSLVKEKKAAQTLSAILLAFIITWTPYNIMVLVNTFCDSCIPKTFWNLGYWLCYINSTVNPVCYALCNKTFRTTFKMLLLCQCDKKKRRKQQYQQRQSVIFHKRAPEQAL
Adrenergic α2A, sequence (P08913 whole entry): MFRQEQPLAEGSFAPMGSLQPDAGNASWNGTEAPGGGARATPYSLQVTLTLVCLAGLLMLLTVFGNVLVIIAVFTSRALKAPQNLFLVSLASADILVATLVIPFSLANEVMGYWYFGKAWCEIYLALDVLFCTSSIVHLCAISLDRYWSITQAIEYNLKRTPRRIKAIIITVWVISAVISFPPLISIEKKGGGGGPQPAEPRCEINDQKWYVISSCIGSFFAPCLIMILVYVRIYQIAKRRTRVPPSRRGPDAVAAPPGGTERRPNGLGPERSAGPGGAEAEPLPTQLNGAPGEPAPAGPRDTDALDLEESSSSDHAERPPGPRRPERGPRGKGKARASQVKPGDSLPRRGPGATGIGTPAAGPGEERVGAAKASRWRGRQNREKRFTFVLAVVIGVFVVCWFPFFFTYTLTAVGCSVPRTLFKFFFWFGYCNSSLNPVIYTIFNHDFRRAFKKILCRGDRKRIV
gamma aminobutyric acid GABAB, sequence (Q9UBS5 15-961 limits assumed): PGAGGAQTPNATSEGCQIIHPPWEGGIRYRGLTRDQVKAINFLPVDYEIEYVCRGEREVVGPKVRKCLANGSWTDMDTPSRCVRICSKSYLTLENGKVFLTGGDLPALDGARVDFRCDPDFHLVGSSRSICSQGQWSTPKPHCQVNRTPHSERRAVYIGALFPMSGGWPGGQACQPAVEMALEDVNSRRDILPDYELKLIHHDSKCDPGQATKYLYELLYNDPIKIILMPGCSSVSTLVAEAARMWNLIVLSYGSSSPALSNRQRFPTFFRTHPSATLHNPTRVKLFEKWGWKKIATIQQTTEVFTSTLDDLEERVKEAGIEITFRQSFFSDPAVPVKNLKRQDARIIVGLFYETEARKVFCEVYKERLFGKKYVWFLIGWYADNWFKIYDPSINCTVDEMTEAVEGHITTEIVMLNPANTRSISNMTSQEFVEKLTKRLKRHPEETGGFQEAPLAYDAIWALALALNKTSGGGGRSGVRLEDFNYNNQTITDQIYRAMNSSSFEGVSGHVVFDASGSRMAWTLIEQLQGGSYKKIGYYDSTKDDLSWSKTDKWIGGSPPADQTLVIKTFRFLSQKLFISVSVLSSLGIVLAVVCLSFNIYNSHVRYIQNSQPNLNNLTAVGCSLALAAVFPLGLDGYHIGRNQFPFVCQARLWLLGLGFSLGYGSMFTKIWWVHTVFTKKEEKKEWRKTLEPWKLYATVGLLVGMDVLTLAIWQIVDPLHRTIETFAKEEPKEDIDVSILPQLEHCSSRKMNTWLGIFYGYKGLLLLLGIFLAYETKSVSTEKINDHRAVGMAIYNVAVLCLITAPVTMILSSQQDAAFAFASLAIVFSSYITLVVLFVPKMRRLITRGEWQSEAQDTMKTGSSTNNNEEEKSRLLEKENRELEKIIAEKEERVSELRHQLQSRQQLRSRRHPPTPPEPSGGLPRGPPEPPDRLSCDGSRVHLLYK
gamma aminobutyric acid GABAB, sequence (O75899 42-941 partner): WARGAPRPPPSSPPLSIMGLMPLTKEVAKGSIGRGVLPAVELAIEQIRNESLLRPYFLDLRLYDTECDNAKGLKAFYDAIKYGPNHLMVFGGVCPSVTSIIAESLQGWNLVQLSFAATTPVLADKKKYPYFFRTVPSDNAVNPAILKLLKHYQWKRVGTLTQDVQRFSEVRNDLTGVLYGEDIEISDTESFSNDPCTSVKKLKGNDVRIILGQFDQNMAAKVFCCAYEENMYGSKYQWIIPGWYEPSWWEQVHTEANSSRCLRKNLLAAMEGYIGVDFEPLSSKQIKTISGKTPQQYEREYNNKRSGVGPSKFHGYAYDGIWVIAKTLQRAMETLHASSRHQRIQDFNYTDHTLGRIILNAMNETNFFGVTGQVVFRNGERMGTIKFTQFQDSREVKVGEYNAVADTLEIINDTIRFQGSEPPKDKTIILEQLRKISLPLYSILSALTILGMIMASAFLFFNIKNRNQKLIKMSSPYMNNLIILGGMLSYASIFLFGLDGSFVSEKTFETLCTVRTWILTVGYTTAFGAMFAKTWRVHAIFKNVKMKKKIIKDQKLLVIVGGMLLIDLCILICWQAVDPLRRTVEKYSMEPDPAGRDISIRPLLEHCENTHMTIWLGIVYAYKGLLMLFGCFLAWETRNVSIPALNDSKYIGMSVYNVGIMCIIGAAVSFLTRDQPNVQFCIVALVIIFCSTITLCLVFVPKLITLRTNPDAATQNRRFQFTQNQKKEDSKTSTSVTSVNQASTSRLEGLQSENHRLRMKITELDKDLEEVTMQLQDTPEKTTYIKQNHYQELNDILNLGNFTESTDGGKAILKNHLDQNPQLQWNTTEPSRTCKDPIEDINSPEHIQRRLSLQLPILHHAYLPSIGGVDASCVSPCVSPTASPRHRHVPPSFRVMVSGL
tachykinin NK1, sequence (P25103 whole entry): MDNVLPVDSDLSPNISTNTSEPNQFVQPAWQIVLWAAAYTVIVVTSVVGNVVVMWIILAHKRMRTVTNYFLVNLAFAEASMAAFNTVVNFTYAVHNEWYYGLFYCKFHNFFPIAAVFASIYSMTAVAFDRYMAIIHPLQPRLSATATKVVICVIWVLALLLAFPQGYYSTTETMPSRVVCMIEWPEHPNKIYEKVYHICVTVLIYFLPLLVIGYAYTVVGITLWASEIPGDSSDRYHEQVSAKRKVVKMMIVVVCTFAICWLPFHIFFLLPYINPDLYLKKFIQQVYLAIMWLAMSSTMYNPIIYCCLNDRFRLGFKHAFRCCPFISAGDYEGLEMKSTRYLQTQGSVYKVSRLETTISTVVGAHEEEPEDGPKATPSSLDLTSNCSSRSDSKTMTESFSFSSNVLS

SMILES: Oc1ccc2c(c1O)-c1cccc3c1C(C2)NCC3 (stereo not shown) [Norapomorphine, norapomorphine]
- pKi (Serotonin 5-HT2A; Serotonin 5-HT2A, read-out: Ki): 5.95
- pKi (Adrenergic α2B): 6.67
- pKi (Serotonin 5-HT7; Serotonin 5-HT7, read-out: Ki): 5.86
- binding activity [1]: did not bind significantly
- binding activity (tachykinin NK2): did not bind significantly
- binding activity (muscarinic M5): did not bind significantly
- binding activity (adrenergic β2): did not bind significantly
- pKi (Adrenergic α1A): 5.38
- binding activity (tachykinin NK1): did not bind significantly
- pKi (Opiate μ): 5.68
- pKi (Serotonin 5-HT1B): 5.45
- pKi (Dopamine D2S): 5.96
- binding activity (dopamine D4.7): did not bind significantly
- binding activity (muscarinic M4): did not bind significantly
- binding activity (adrenergic β3): did not bind significantly
- effect on the activity of nitric oxide synthetase (nitric oxide synthetase): neither apomorphine nor its metabolite norapomorphine demonstrated any significant effect
- pKi (Dopamine D3): 6.93
- binding activity (neuropeptide Y NPY2): did not bind significantly
- binding activity (dopamine D4.2): did not bind significantly
- binding activity (tachykinin NK3): did not bind significantly
- binding activity (muscarinic M1): did not bind significantly
- binding activity (muscarinic M3): did not bind significantly
- binding activity (muscarinic M2): did not bind significantly
- binding activity [2]: did not bind significantly
- pKi (Adrenergic α2A; Adrenergic α2A, read-out: Ki): 5.84
- pKi (Serotonin 5-HT6): 5.78
- binding activity [3]: did not bind significantly
- binding activity (nicotinic): did not bind significantly
- pKi (Serotonin 5-HT1A): 6.36
- binding activity [4]: did not bind significantly
- binding activity (dopamine D4.4): did not bind significantly
- Ki (Serotonin 5-HT2): N/S (N/S = no significant activity (≧50% at 10 μM))
- binding activity (adrenergic β1): did not bind significantly
- binding activity (neuropeptide Y NPY1): did not bind significantly
- binding activity (serotonin 5-HT4): did not bind significantly

SMILES: CN1CCc2cccc3c2[C@H]1Cc1ccc(O)c(O)c1-3 [Apomorphine, (R)-5,6,6a,7-tetrahydro-6-methyl-4H-dibenzo-[de,g]quinoline-10,11-diol]
- pKi (Serotonin 5-HT2A): 7.57
- pKi (Serotonin 5-HT7): 7.19
- binding activity [1]: No significant binding activity
- pKi (Adrenergic α2C): 7.72
- binding activity (tachykinin NK2): No significant binding activity
- binding activity (muscarinic M5): No significant binding activity
- binding activity (adrenergic β2): No significant binding activity
- binding activity (opiate κ): No significant binding activity
- binding activity (opiate δ): No significant binding activity
- pKi (Adrenergic α1A): 6.46
- binding activity (tachykinin NK1): No significant binding activity
- binding activity (Opiate μ): No significant binding activity
- pKi (Adrenergic α1B): 6.05
- pKi (Serotonin 5-HT1B): 6.69
- binding activity (dopamine D4.7): No significant binding activity
- binding activity (muscarinic M4): No significant binding activity
- binding activity (adrenergic β3): No significant binding activity
- effect on the activity of nitric oxide synthetase (nitric oxide synthetase): neither apomorphine nor its metabolite norapomorphine demonstrated any significant effect
- binding activity (neuropeptide Y NPY2): No significant binding activity
- binding activity (dopamine D4.2): No significant binding activity
- binding activity (tachykinin NK3): No significant binding activity
- binding activity (muscarinic M3): No significant binding activity
- binding activity (muscarinic M2): No significant binding activity
- binding activity [2]: No significant binding activity
- pKi (Adrenergic α2A): 7.15
- pKi (Serotonin 5-HT6): 6.69
- binding activity [3]: No significant binding activity
- binding activity (nicotinic): No significant binding activity
- pKi (Serotonin 5-HT1D): 6.54
- binding activity [4]: No significant binding activity
- binding activity (dopamine D4.4): No significant binding activity
- pKi (Serotonin 5-HT2; read-out: Ki): 6.95
- binding activity (adrenergic β1): No significant binding activity
- binding activity (neuropeptide Y NPY1): No significant binding activity
- binding activity (serotonin 5-HT4): No significant binding activity
